Key:
Experiment in all cases: relative viability (nuclei count vs DMSO), 5 days (fraction); higher = more cells survive
[1] = compound: CN(C)CC1=CC(=CC=C1)N=C(C2=CC=CC=C2)C3=C(NC4=C3C=CC(=C4)C(=O)N(C)C)O + COc1cccc2cc(-c3nc([C@H]4CC[C@H](C(=O)O)CC4)n4ncnc(N)c34)[nH]c12 [OSI-027] (partner 0.5 µM)
In short: (§1)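 Lung cancer cell lines, seeded in 1536-well plates, were treated the following day by pin tool with a single drug or with five library-drug doses (not always all listed) in √10 steps on top of a fixed anchor-drug dose. Cells were fixed and nuclei stained in one step after 5 days, and nuclei were counted. Relative viability is the nuclei count for treated wells divided by that for vehicle wells, reported as medians of duplicate plates.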

[2] = compound: CN(C)CC1=CC(=CC=C1)N=C(C2=CC=CC=C2)C3=C(NC4=C3C=CC(=C4)C(=O)N(C)C)O + CC(=O)Nc1cccc(-n2c(=O)n(C3CC3)c(=O)c3c(Nc4ccc(I)cc4F)n(C)c(=O)c(C)c32)c1 [Trametinib] (partner 0.02 µM)
In short: as §1

[3] = compound: CN(C)CC1=CC(=CC=C1)N=C(C2=CC=CC=C2)C3=C(NC4=C3C=CC(=C4)C(=O)N(C)C)O + N=C(N)NC(=N)NCCc1ccccc1 [Phenformin] (partner 250 µM)
In short: as §1

[4] = compound: CN(C)CC1=CC(=CC=C1)N=C(C2=CC=CC=C2)C3=C(NC4=C3C=CC(=C4)C(=O)N(C)C)O + C[C@@H](Oc1cc(-c2cnn(C3CCNCC3)c2)cnc1N)c1c(Cl)ccc(F)c1Cl [Crizotinib] (partner 1 µM)
In short: as §1

Cell Line: NCI-H650
- relative viability ([1]; first compound 0.08 µM): 0.529
- relative viability ([1]; first compound 0.253 µM): 0.561
- relative viability ([1]; first compound 0.8 µM): 0.583
- relative viability ([1]; first compound 2.53 µM): 0.507
- relative viability ([1]; first compound 8 µM): 0.42
- relative viability ([2]; first compound 0.08 µM): 0.974
- relative viability ([2]; first compound 0.253 µM): 1.17
- relative viability ([2]; first compound 0.8 µM): 0.975
- relative viability ([2]; first compound 2.53 µM): 0.812
- relative viability ([2]; first compound 8 µM): 0.964
- relative viability ([3]; first compound 0.08 µM): 0.49
- relative viability ([3]; first compound 0.253 µM): 0.495
- relative viability ([3]; first compound 0.8 µM): 0.459
- relative viability ([3]; first compound 2.53 µM): 0.43
- relative viability ([3]; first compound 8 µM): 0.433
- relative viability ([4]; first compound 0.08 µM): 0.772
- relative viability ([4]; first compound 0.253 µM): 0.647
- relative viability ([4]; first compound 0.8 µM): 0.677
- relative viability ([4]; first compound 2.53 µM): 0.561
- relative viability ([4]; first compound 8 µM): 0.645

Cell Line: NCI-H661
- relative viability ([1]; first compound 0.08 µM): 0.718
- relative viability ([1]; first compound 0.253 µM): 0.679
- relative viability ([1]; first compound 0.8 µM): 0.665
- relative viability ([1]; first compound 2.53 µM): 0.718
- relative viability ([1]; first compound 8 µM): 0.567
- relative viability ([2]; first compound 0.08 µM): 0.565
- relative viability ([2]; first compound 0.253 µM): 0.551
- relative viability ([2]; first compound 0.8 µM): 0.54
- relative viability ([2]; first compound 2.53 µM): 0.591
- relative viability ([2]; first compound 8 µM): 0.592
- relative viability ([3]; first compound 0.08 µM): 0.274
- relative viability ([3]; first compound 0.253 µM): 0.284
- relative viability ([3]; first compound 0.8 µM): 0.244
- relative viability ([3]; first compound 2.53 µM): 0.293
- relative viability ([3]; first compound 8 µM): 0.262
- relative viability ([4]; first compound 0.253 µM): 0.981
- relative viability ([4]; first compound 0.8 µM): 1.03
- relative viability ([4]; first compound 2.53 µM): 0.862
- relative viability ([4]; first compound 8 µM): 0.994

Cell Line: NCI-H727
- relative viability ([1]; first compound 0.08 µM): 0.72
- relative viability ([1]; first compound 0.253 µM): 0.581
- relative viability ([1]; first compound 0.8 µM): 0.59
- relative viability ([1]; first compound 2.53 µM): 0.573
- relative viability ([1]; first compound 8 µM): 0.537
- relative viability ([2]; first compound 0.253 µM): 0.368
- relative viability ([2]; first compound 0.8 µM): 0.428
- relative viability ([2]; first compound 2.53 µM): 0.391
- relative viability ([2]; first compound 8 µM): 0.426
- relative viability ([3]; first compound 0.08 µM): 0.595
- relative viability ([3]; first compound 0.253 µM): 0.474
- relative viability ([3]; first compound 0.8 µM): 0.53
- relative viability ([3]; first compound 2.53 µM): 0.578
- relative viability ([3]; first compound 8 µM): 0.573
- relative viability ([4]; first compound 0.08 µM): 0.772
- relative viability ([4]; first compound 0.253 µM): 0.808
- relative viability ([4]; first compound 0.8 µM): 0.78
- relative viability ([4]; first compound 2.53 µM): 0.795
- relative viability ([4]; first compound 8 µM): 0.699

Cell Line: NCI-H838
- relative viability ([1]; first compound 0.08 µM): 0.347
- relative viability ([1]; first compound 0.253 µM): 0.469
- relative viability ([1]; first compound 0.8 µM): 0.513
- relative viability ([1]; first compound 2.53 µM): 0.417
- relative viability ([1]; first compound 8 µM): 0.354
- relative viability ([2]; first compound 0.08 µM): 0.528
- relative viability ([2]; first compound 0.253 µM): 0.51
- relative viability ([2]; first compound 0.8 µM): 0.494
- relative viability ([2]; first compound 2.53 µM): 0.473
- relative viability ([2]; first compound 8 µM): 0.431
- relative viability ([3]; first compound 0.08 µM): 0.57
- relative viability ([3]; first compound 0.253 µM): 0.584
- relative viability ([3]; first compound 0.8 µM): 0.585
- relative viability ([3]; first compound 2.53 µM): 0.537
- relative viability ([3]; first compound 8 µM): 0.503
- relative viability ([4]; first compound 0.08 µM): 0.825
- relative viability ([4]; first compound 0.253 µM): 0.784
- relative viability ([4]; first compound 0.8 µM): 0.861
- relative viability ([4]; first compound 2.53 µM): 0.659
- relative viability ([4]; first compound 8 µM): 0.755

Cell Line: NCI-H1355
- relative viability ([1]; first compound 0.08 µM): 0.463
- relative viability ([1]; first compound 0.253 µM): 0.457
- relative viability ([1]; first compound 0.8 µM): 0.393
- relative viability ([1]; first compound 2.53 µM): 0.491
- relative viability ([1]; first compound 8 µM): 0.329
- relative viability ([2]; first compound 0.08 µM): 0.472
- relative viability ([2]; first compound 0.253 µM): 0.407
- relative viability ([2]; first compound 0.8 µM): 0.314
- relative viability ([2]; first compound 2.53 µM): 0.392
- relative viability ([2]; first compound 8 µM): 0.51
- relative viability ([3]; first compound 0.08 µM): 0.483
- relative viability ([3]; first compound 0.253 µM): 0.463
- relative viability ([3]; first compound 0.8 µM): 0.421
- relative viability ([3]; first compound 2.53 µM): 0.421
- relative viability ([3]; first compound 8 µM): 0.392
- relative viability ([4]; first compound 0.08 µM): 1.1
- relative viability ([4]; first compound 0.253 µM): 1.05
- relative viability ([4]; first compound 0.8 µM): 1.06
- relative viability ([4]; first compound 2.53 µM): 1.03
- relative viability ([4]; first compound 8 µM): 1.06

Cell Line: NCI-H1437
- relative viability ([1]; first compound 0.08 µM): 1.02
- relative viability ([1]; first compound 0.253 µM): 0.917
- relative viability ([1]; first compound 0.8 µM): 0.983
- relative viability ([1]; first compound 2.53 µM): 0.877
- relative viability ([1]; first compound 8 µM): 0.942
- relative viability ([2]; first compound 0.08 µM): 0.574
- relative viability ([2]; first compound 0.253 µM): 0.53
- relative viability ([2]; first compound 0.8 µM): 0.475
- relative viability ([2]; first compound 2.53 µM): 0.572
- relative viability ([2]; first compound 8 µM): 0.656
- relative viability ([3]; first compound 0.08 µM): 0.269
- relative viability ([3]; first compound 0.253 µM): 0.298
- relative viability ([3]; first compound 0.8 µM): 0.335
- relative viability ([3]; first compound 2.53 µM): 0.349
- relative viability ([3]; first compound 8 µM): 0.36
- relative viability ([4]; first compound 0.08 µM): 0.898
- relative viability ([4]; first compound 0.253 µM): 0.949
- relative viability ([4]; first compound 0.8 µM): 0.992
- relative viability ([4]; first compound 2.53 µM): 0.813
- relative viability ([4]; first compound 8 µM): 0.959

Cell Line: NCI-H1650
- relative viability ([1]; first compound 0.08 µM): 0.756
- relative viability ([1]; first compound 0.253 µM): 0.686
- relative viability ([1]; first compound 0.8 µM): 0.612
- relative viability ([1]; first compound 2.53 µM): 0.714
- relative viability ([1]; first compound 8 µM): 0.524
- relative viability ([2]; first compound 0.08 µM): 0.69
- relative viability ([2]; first compound 0.253 µM): 0.569
- relative viability ([2]; first compound 0.8 µM): 0.63
- relative viability ([2]; first compound 2.53 µM): 0.604
- relative viability ([2]; first compound 8 µM): 0.601
- relative viability ([3]; first compound 0.08 µM): 0.481
- relative viability ([3]; first compound 0.253 µM): 0.55
- relative viability ([3]; first compound 0.8 µM): 0.412
- relative viability ([3]; first compound 2.53 µM): 0.49
- relative viability ([3]; first compound 8 µM): 0.4
- relative viability ([4]; first compound 0.08 µM): 1.14
- relative viability ([4]; first compound 0.253 µM): 0.956
- relative viability ([4]; first compound 0.8 µM): 1.03
- relative viability ([4]; first compound 2.53 µM): 0.977
- relative viability ([4]; first compound 8 µM): 0.749

Cell Line: NCI-H1651
- relative viability ([1]; first compound 0.08 µM): 0.846
- relative viability ([1]; first compound 0.253 µM): 0.874
- relative viability ([1]; first compound 0.8 µM): 0.731
- relative viability ([1]; first compound 2.53 µM): 0.645
- relative viability ([1]; first compound 8 µM): 0.783
- relative viability ([2]; first compound 0.08 µM): 0.857
- relative viability ([2]; first compound 0.253 µM): 0.819
- relative viability ([2]; first compound 0.8 µM): 0.863
- relative viability ([2]; first compound 2.53 µM): 0.851
- relative viability ([2]; first compound 8 µM): 0.788
- relative viability ([3]; first compound 0.08 µM): 0.346
- relative viability ([3]; first compound 0.253 µM): 0.343
- relative viability ([3]; first compound 0.8 µM): 0.349
- relative viability ([3]; first compound 2.53 µM): 0.292
- relative viability ([3]; first compound 8 µM): 0.329
- relative viability ([4]; first compound 0.08 µM): 0.884
- relative viability ([4]; first compound 0.253 µM): 0.844
- relative viability ([4]; first compound 0.8 µM): 0.873
- relative viability ([4]; first compound 2.53 µM): 0.835
- relative viability ([4]; first compound 8 µM): 0.822
